Data as given in patent US20130324522A1, “INSECT ODORANT RECEPTOR ANTAGONISTS” (THE ROCKEFELLER UNIVERSITY, priority 2010, published 2013).
Like-named read-outs stand apart in the source and are kept apart here.

Assays:
Type in all cases: cell-based
TRP channel (TRPM8) = target: T1, TRP channel (TRPM8) (Mus musculus, UniProt Q8R4D5); experiment: Ca2+-imaging of stable HEK293T cell line TRPM8; conditions: for inhibition at 4 µM: HEK-293T, read-out: Percent Inhibition TRPM8
T1 construct: Full-length cDNAs for mosquito (Anopheles gambiae) odorant receptor (OR1, OR2, OR7, OR8, OR28), and fly (Drosophila melanogaster) odorant receptor (Or47a, Or83b), mouse TRP channel (TRPM8); expressed in transfected cells
T1 sequence (Q8R4D5 whole entry): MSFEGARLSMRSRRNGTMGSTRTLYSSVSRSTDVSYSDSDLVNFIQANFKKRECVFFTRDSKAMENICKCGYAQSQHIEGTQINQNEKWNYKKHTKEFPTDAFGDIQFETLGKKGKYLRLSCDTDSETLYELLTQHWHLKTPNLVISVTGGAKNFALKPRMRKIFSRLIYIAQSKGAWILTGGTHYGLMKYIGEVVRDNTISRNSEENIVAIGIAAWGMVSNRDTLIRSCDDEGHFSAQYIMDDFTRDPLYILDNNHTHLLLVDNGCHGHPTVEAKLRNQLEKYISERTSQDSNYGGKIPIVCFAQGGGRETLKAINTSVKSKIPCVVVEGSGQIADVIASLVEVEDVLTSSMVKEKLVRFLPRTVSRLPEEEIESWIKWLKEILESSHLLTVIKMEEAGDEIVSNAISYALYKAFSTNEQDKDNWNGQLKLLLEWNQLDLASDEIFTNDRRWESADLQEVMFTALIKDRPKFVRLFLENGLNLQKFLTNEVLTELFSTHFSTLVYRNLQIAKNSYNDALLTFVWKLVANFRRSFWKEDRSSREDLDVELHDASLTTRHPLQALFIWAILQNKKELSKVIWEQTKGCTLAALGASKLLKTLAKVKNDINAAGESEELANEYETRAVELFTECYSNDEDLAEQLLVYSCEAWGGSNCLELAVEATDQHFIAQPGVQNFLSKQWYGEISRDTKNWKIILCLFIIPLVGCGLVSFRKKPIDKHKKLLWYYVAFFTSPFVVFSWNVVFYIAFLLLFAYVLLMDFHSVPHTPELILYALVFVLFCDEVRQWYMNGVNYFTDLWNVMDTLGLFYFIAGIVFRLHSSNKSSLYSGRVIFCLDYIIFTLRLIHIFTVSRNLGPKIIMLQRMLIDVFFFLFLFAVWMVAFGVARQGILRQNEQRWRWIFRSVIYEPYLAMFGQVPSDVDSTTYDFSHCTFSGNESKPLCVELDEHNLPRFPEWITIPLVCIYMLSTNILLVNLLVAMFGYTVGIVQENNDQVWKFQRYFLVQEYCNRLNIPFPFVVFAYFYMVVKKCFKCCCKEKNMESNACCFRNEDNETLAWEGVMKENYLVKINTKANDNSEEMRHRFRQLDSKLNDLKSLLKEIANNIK
Description: (§1) Full-length cDNAs for mosquito (Anopheles gambiae) odorant receptor (OR1, OR2, OR7, OR8, OR28), and fly (Drosophila melanogaster) odorant receptor (Or47a, Or83b), mouse TRP channel (TRPM8), and mouse serotonin receptor (5HT3) were obtained and subcloned into mammalian expression vectors. The following mammalian expression vectors were used:
(§2) Stable cell lines OR1/OR7, OR2/OR7, OR8/OR7, OR10/OR7, OR28/OR7 and TRPM8 were generated from HEK293T cells. HEK293T-based cell lines were cultured in DMEM supplemented with these additional antibiotics: 6 μg/mL blasticidin and 1 μg/mL puromycin, with the exception of the TRPM8 cell lines, which was cultured in DMEM supplemented with 1 μg/mL puromycin.
(§3) Cells were trypsinized and split into 35 mm dishes one day before transfection. Confluent cells (60-70%) in 35 mm dishes were transfected with 1 μg of insect OR(X) plasmids in pME18s-bla and 1 μg of OR7-pME18s-puro using lipofectamine 2000. For Anopheles odorant receptors, two plasmids were co-transfected into HEK cells: the ligand-specific receptor (OR1, OR2, OR8, OR28) and the corresponding olfactory co-receptor: OR7. Cell lines containing TRPM8 were transfected with single plasmid.
(§4) Stable cell lines were cultured in 10 cm dishes, and confluent cells (70-80%) were trypsinized. 10,000 cells/20 μL were transferred into each well of 384-well plates coated with poly-D-lysine, and cultured for 2 days. For Flip-In T-Rex cells (cell lines expressing Or47a/Or83b and 5HT3), 5 μL of tetracycline (5 μg/mL) were added 1 day before the assay. 20 μL of Ca-4 dye was loaded into each well for 1.5 hr at room temperature in the dark, and the dye-loaded plates were subjected to Ca^2+-imaging using a Hamamatsu FDSS6000 real time fluorescence plate reader. Odorant solutions (9× final concentration) were prepared by dissolving 1M stock solutions into Hank's Buffered Salt Solution (HBSS), and 30 μL of odor solution was transferred to each well in 384-well plates.
(§5) Compounds ([…] in DMSO) were stored in 384-well plates, and last two columns (32 wells total) contained only DMSO. 200 nL of small compounds were transferred into the odorant plates before the assay using the Perkin-Elmer Janus workstation. The odorant plates were spun down to remove air bubbles, and placed on the FDSS6000 plate loader, and 5 μL of odorant solution was applied to the cell plate on the FDSS6000. Ca^2+ increase was monitored with fluorescence at 525 nm by excitation at 485 nm.

OR28/OR7 = OR28/OR7 (Anopheles gambiae, UniProt A0A1S4GFY3+Q7QCC7); experiment: Ca2+-imaging of stable HEK293T cell line OR28/OR7; conditions: for inhibition at 4 µM: HEK-293T, read-out: Percent Inhibition OR28 OR7
Chain of OR28/OR7 (A0A1S4GFY3 entry or part of it): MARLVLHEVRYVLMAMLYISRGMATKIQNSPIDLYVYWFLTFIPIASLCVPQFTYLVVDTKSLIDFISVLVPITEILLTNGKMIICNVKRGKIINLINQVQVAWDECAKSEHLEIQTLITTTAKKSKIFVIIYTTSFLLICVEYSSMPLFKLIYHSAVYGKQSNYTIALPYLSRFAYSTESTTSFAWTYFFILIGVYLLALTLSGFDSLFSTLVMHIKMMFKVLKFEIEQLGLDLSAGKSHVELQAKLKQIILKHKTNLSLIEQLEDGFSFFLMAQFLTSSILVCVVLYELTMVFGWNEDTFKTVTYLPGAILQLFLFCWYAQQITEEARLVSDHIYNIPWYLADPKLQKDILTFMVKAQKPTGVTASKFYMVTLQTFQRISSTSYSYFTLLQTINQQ
Chain of OR28/OR7 (Q7QCC7 whole entry): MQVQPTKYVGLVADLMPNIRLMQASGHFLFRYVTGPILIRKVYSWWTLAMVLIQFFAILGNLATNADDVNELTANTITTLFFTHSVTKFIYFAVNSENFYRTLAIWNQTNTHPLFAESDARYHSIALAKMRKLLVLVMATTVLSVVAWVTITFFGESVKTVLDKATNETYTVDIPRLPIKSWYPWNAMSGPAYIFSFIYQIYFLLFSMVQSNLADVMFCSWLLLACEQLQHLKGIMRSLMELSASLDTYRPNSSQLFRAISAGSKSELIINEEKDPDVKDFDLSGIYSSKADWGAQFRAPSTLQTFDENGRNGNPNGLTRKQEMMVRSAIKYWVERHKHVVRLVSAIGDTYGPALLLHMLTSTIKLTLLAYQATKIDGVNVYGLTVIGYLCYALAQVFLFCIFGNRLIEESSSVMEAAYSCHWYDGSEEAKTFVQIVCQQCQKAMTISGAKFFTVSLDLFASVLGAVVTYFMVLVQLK
Description: as §1, §2, §3, §4, §5

OR8/OR7 = OR8/OR7 (Anopheles gambiae, UniProt Q7PUT5+Q7QCC7); experiment: Ca2+-imaging of stable HEK293T cell line OR8/OR7; conditions: for inhibition at 4 µM: HEK-293T, read-out: Percent Inhibition OR8 OR7
Chain of OR8/OR7 (Q7QCC7 whole entry): as above
Chain of OR8/OR7 (Q7PUT5 entry or part of it): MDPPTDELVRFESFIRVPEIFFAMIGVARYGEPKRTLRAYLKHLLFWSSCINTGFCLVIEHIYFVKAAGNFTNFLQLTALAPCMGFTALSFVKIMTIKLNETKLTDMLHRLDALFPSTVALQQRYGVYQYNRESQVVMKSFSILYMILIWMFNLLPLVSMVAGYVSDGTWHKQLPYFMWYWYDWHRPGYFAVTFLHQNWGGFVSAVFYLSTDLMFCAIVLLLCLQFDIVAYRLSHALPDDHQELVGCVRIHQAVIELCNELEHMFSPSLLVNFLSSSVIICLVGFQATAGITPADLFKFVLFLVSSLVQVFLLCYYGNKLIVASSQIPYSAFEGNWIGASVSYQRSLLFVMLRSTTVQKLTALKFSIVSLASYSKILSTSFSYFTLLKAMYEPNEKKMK
Description: as §1, §2, §3, §4, §5

Or47a/Or83b = target: T2, Or47a/Or83b (Drosophila melanogaster, UniProt P81921+Q9VNB5); experiment: Ca2+-imaging of stable Flip-In T-Rex cell line Or47a/Or83b; conditions: for inhibition at 4 µM: read-out: Percent Inhibition OR47a OR83b
T2 construct: Full-length cDNAs for mosquito (Anopheles gambiae) odorant receptor (OR1, OR2, OR7, OR8, OR28), and fly (Drosophila melanogaster) odorant receptor (Or47a, Or83b); expressed in transfected cells
T2 sequence (P81921 1-385): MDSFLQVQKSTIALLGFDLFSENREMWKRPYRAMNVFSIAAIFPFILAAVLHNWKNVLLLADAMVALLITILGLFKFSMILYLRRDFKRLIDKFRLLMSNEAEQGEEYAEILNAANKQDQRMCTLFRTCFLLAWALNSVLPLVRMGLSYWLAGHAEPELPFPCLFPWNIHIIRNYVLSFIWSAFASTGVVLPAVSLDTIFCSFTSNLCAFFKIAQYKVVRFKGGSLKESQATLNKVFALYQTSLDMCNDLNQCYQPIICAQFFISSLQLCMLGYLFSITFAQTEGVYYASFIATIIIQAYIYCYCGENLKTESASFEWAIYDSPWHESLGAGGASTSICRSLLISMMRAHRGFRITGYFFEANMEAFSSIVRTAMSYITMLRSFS
T2 sequence (Q9VNB5 1-486): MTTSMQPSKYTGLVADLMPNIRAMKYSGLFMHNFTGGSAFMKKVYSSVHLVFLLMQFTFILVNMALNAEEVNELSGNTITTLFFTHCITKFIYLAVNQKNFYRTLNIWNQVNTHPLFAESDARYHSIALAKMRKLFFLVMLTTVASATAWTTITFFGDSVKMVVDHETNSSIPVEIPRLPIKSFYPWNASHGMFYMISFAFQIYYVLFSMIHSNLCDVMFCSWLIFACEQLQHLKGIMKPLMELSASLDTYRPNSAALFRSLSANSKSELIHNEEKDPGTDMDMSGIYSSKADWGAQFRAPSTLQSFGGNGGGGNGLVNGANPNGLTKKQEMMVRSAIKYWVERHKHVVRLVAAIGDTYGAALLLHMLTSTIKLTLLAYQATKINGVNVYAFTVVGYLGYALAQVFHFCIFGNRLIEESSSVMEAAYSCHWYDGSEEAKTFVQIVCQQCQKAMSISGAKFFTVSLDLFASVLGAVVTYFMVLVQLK
Description: as §1
Stable cell lines Or47a/Or83b and 5HT3 were generated from Flip-In T-Rex cells. Flip-In T-Rex-based cell lines were cultured in DMEM supplemented with these additional antibiotics: 6 μg/mL blasticidin and 100 μg/mL hygromycin.
Cells were trypsinized and split into 35 mm dishes 1 day before transfection. Confluent cells (60-70%) in 35 mm dishes were co-transfected with 1 μg of Or47a/Or83b plasmid in pcDNA5/FRT/TO/IRES plus the pOG44 plasmid or 1 μg of 5HT3 plasmid in pcDNA5/FRT/TO plus the pOG44 plasmid using lipofectamine 2000. Co-transfection of pOG44 and pcDNA5/FRT/TO/IRES or pcDNA5/FRT/TO allows expression of Flp recombinase and integration of the pcDNA5 plasmid into the genome via the FRT site. After one day of incubation, the transfected cells were transferred into 10 cm dishes with DMEM containing antibiotics: 20 μg/mL of hygromycin and 6 μg/mL of blasticidin. The concentration of Hygromycin was increased to 100 μg/mL when the population of cells became 30-40% confluent. The cells were cultured by changing medium every two days until cell clumps appeared. The clumps were picked and transferred into 96 well plates with DMEM containing 100 μg/mL of Hygromycin and 6 μg/mL of blasticidin. The cells were grown and transferred to 24 well plates, and ligand-evoked calcium increases were tested using the Hamamatsu FDSS6000 real time fluorescence plate reader.
as §4, §5

Row | SMILES | inhibition at 4 µM (TRP channel (TRPM8); compound applied at 4 μM) [%] | inhibition at 4 µM (OR28/OR7; compound applied at 4 μM) [%] | IC50 (OR28/OR7; Table B, read-out: IC50 OR28) [nM] | inhibition at 4 µM (OR8/OR7; compound applied at 4 μM) [%] | inhibition at 4 µM (Or47a/Or83b; compound applied at 4 μM) [%] | other results
1 | COCCN(Cc1c(-c2ccccc2)noc1N(C)C1CCCCC1)C(=O)c1ccccc1OC [RU-0037275] | < 25 | > 75 | < 100 | 51 to 74 | 51 to 74 | IC50 (OR8/OR7; Table B, read-out: IC50 OR8): > 1000 nM; IC50 (Or47a/Or83b; Table B, read-out: IC50 OR47a): > 1000 nM
2 | CCN(C)c1onc(-c2ccccc2)c1CN(CCCOC)C(=O)c1ccco1 [RU-0051926] | < 25 | > 75 | > 1000 | < 25 | 26 to 50 | –
3 | C=CCNC(=O)C(NC(=O)c1cccc(C)c1)C1CCN(C(=O)c2cccc(Br)c2)CC1 (stereo not shown) [RU-0039123] | < 25 | > 75 | < 100 | 26 to 50 | 51 to 74 | IC50 (Or47a/Or83b; Table B, read-out: IC50 OR47a): > 1000 nM
4 | COc1ccc(-n2c(Cc3ccccc3)nnc2SCCCC(=O)N2CCN(C(=O)c3ccc(C(F)(F)F)cc3)C(C)C2)cc1 (stereo not shown) [RU-0071828] | < 25 | > 75 | < 100 | < 25 | 26 to 50 | –
5 | COc1ccc(OCC(=O)N2CCOC(Cc3ccccc3)C2)cc1 (stereo not shown) [RU-0050384] | < 25 | > 75 | 100 to 1000 | < 25 | 26 to 50 | –
6 | Fc1cccc(Cl)c1Cn1ccnc1CN(CC1CCCC1)C1CC1 [RU-I4] | – | – | – | – | – | IC50 (TRP channel (TRPM8); ligand menthol 300 μM, read-out: IC50 TRPM8): > 20000 nM; IC50 (OR28/OR7; ligand acetophenone 300 μM, read-out: IC50 OR28 OR7): 2000 to 20000 nM; IC50 (OR8/OR7; ligand 1-octen-3-ol 30 μM, read-out: IC50 OR8 OR7): > 220000 nM; IC50 (Or47a/Or83b; ligand pentyl acetate 30 μM, read-out: IC50 OR47a OR83b): > 20000 nM
7 | CCN(CC)c1onc(-c2ccccc2)c1CN(CC1CCCO1)C(=O)c1ccco1 (stereo not shown) [RU-0036855] | 26 to 50 | > 75 | < 100 | 26 to 50 | 26 to 50 | –
8 | COCCCN(Cc1c(-c2ccccc2)noc1N(C)C(C)C)C(=O)c1ccccc1OC [RU-0037003] | < 25 | > 75 | < 100 | 26 to 50 | < 25 | –
9 | CCCCCCCC(=O)N1CCCC(C(=O)NC2CCCC[C@H]2NC(=O)c2ccccc2C)C1 (stereo partly shown) [RU-0045756] | < 25 | 51 to 74 | > 1000 | < 25 | 26 to 50 | –
10 | CCN(CC)C(=O)Oc1ccc2c(ccn2Cc2ccc(Cl)cc2)c1NC(=O)C1CC1 [RU-0075475] | – | – | – | – | – | inhibition at 4 µM (TRP channel (TRPM8)): < 25%; IC50 (OR28/OR7): > 1000 nM; inhibition at 4 µM (OR28/OR7): > 75%; inhibition at 4 µM (OR8/OR7): < 25%; inhibition at 4 µM (Or47a/Or83b): < 25%
